{
  "source": "patent US12599597B2",
  "about": "“Substituted N-benzhydrylacetamide inhibitors of jumanji domain histone demethylases for the treatment of cancer” (University of Kentucky Research Foundation, priority 2020, dated 2026)",
  "key": {"LS174T": {"system": "LS174T", "assay": "Colon cancer cell proliferation", "assay_type": "cell-based", "experimental": "(§1) FIGS. 5A-B show an image and graph illustrating validation of CBA-1. (A) CBA-1 repressed Wnt targets in LS174T CRC cells. (B) CBA-1 inhibited CRC cell proliferation (5d, Vi-Cell viability assay).\n(§2) The effects of these compounds on proliferation of colon cancer cell line LS174T and DLD1 were analyzed.\n(§3) Identification of a CBA-1 as a novel Wnt inhibitor. The present inventors routinely use TOPFlash reporter assay for Wnt inhibitor screening. To mimic the constitutively active Wnt signaling found in CRC cells, Wnt signaling was activated by inhibiting GSK3 and stabilizing β-catenin. From screening in house small-molecule libraries, CBA-1 (FIG. 4) was identified that inhibited Wnt signaling in TOPFlash reporter assay. To validate the screening results, CBA-1 was tested in CRC cells."}, "DLD1": {"system": "DLD1", "assay": "Colon cancer cell proliferation", "assay_type": "cell-based", "experimental": "as §1, §2, §3"}, "[1]": {"system": "histone methylation in HEK293T cells", "assay": "Histone methylation in HEK293T cells", "assay_type": "cell-based", "conditions": "5 μM", "experimental": "To determine if 58B1 regulates Wnt signaling through epigenetic mechanism, the effects of 58B1 on histone methylation were analyzed. […] Similar results were found in LS174T colon cancer cells. H3K9 and H3K27 methylations are negative regulators of transcription. Without wishing to be bound by theory, it is believed that 58B1 inhibited Wnt signaling by increasing H3K9 or H3K27 methylation on Wnt target gene promotors."}, "JMJD2C (KDM4C)": {"biological_target": "T1, JMJD2C (KDM4C) (Homo sapiens, UniProt Q9H3R0)", "T1 sequence (Q9H3R0 1-1056)": "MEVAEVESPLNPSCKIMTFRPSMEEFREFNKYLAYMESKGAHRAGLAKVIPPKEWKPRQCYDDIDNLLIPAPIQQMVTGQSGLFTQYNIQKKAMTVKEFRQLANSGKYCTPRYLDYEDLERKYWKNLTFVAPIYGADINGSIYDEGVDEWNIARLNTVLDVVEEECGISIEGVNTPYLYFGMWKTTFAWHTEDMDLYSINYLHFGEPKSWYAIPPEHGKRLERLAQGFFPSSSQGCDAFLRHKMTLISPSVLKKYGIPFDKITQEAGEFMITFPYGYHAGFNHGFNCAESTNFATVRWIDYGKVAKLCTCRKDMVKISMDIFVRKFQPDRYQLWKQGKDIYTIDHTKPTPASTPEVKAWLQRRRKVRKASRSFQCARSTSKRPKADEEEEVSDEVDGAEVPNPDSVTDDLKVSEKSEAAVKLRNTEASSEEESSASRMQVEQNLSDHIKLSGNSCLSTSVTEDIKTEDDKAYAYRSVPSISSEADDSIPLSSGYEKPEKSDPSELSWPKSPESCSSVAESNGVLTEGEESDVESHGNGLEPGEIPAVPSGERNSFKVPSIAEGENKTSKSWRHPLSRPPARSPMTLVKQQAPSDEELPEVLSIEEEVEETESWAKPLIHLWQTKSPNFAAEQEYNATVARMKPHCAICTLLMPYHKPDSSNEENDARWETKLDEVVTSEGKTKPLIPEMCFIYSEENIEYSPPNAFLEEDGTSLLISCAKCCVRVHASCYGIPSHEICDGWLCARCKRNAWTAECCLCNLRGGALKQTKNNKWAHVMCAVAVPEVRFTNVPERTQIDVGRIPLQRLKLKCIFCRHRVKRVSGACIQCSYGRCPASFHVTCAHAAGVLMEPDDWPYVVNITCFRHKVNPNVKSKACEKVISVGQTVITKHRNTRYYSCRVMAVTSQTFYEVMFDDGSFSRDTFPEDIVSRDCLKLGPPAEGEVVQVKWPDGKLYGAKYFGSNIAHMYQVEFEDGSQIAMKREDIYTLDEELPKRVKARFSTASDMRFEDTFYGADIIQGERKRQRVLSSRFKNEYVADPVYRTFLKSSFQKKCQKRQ", "assay": "Histone demethylase assay, purified enzyme panel", "assay_type": "biochemical", "conditions": "58B1, 10 μM", "source_text": "(§4) Histone Demethylase Assay\n(§5) To further examine the effects of 58B1 on histone demethylase, we screened a panel of purified histone demethylases was screened."}, "Jarid1B (KDM5B)": {"biological_target": "Jarid1B (KDM5B) (Homo sapiens, UniProt Q9UGL1)", "sequence (Q9UGL1 whole entry)": "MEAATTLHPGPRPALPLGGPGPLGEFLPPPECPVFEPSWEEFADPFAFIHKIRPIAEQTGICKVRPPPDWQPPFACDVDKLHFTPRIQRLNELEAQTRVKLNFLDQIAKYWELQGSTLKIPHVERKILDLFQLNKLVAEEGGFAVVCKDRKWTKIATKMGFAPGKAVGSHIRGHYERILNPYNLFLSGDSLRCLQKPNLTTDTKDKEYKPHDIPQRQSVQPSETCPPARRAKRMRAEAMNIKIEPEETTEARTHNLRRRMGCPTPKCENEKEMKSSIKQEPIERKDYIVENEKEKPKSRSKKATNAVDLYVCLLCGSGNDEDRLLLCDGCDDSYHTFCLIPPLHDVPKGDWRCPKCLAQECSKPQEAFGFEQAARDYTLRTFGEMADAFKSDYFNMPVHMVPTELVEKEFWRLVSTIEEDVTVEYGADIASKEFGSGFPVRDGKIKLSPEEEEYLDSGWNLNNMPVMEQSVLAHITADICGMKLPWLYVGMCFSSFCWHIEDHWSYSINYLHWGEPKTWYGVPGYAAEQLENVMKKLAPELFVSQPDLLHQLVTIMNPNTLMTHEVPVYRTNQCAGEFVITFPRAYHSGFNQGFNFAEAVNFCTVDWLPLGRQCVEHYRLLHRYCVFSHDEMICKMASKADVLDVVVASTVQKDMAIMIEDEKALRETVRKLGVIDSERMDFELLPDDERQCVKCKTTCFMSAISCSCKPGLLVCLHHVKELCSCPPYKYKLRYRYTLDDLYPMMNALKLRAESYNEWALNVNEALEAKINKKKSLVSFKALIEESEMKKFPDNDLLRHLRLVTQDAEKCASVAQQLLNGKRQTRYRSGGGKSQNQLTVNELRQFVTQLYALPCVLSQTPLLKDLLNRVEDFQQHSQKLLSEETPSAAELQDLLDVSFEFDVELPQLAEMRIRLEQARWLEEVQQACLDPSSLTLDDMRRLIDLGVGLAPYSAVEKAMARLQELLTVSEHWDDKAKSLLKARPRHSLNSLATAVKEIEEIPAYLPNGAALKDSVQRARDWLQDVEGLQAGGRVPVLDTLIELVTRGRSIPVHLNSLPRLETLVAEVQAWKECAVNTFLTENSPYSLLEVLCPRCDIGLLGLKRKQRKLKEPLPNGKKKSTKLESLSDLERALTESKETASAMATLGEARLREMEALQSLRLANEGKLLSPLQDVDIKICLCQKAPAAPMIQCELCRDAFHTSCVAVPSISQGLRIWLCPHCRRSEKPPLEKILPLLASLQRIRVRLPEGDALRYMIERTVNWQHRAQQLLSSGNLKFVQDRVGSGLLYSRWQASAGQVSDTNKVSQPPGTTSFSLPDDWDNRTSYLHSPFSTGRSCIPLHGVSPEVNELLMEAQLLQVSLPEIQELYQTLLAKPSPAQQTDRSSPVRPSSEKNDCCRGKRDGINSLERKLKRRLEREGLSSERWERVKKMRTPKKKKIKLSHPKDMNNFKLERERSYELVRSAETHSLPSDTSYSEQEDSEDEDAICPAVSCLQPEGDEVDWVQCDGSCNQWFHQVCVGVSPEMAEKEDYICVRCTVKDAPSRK", "assay": "Histone demethylase assay, purified enzyme panel", "assay_type": "biochemical", "conditions": "58B1, 10 μM", "source_text": "as §4, §5"}, "LSD1 (KDM1A)": {"biological_target": "LSD1 (KDM1A) (Homo sapiens, UniProt O60341)", "assay": "Histone demethylase assay, purified enzyme panel", "assay_type": "biochemical", "conditions": "58B1, 10 μM", "source_text": "as §4, §5"}, "JMJD3 (KDM6B)": {"biological_target": "JMJD3 (KDM6B) (Homo sapiens, UniProt O15054)", "sequence (O15054 whole entry)": "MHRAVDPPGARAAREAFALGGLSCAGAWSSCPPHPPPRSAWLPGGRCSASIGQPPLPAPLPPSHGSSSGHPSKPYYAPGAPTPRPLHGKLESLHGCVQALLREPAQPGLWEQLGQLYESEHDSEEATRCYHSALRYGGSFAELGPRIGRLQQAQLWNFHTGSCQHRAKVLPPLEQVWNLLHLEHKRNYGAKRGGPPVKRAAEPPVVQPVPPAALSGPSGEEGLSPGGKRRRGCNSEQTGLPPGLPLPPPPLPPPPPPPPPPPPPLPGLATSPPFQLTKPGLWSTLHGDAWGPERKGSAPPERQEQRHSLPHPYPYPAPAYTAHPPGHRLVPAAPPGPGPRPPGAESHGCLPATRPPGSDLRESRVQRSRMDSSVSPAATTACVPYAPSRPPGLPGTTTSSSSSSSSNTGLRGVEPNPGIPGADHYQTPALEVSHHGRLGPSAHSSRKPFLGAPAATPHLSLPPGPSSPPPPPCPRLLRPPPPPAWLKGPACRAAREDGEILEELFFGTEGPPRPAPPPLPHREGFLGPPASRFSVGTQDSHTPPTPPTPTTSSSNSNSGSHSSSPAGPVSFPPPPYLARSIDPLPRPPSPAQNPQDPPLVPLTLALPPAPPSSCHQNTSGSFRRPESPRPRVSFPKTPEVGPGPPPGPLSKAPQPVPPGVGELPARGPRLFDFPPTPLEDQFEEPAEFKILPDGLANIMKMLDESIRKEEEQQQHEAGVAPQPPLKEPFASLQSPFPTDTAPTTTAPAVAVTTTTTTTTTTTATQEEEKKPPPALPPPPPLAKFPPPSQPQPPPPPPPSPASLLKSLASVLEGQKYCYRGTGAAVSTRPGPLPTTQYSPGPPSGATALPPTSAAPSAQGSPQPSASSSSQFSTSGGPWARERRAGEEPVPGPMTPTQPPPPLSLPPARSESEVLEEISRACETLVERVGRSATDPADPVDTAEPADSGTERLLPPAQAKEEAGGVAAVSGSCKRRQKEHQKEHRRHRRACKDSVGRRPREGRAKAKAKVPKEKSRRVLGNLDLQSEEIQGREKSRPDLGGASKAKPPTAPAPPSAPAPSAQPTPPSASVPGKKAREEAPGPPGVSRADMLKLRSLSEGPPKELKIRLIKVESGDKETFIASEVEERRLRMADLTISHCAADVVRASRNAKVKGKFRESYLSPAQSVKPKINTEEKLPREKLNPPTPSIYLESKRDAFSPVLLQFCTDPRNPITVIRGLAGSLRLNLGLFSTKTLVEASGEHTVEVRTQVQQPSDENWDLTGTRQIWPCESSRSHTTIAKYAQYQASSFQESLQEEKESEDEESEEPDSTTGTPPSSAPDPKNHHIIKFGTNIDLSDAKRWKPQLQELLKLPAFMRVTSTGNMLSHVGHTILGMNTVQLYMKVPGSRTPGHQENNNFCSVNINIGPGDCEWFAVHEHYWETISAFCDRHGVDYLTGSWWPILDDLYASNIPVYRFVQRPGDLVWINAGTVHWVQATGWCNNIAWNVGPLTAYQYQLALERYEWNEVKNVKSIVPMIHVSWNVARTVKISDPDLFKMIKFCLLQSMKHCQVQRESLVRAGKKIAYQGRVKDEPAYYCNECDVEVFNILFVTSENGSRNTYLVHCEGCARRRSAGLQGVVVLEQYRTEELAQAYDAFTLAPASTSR", "assay": "Histone demethylase assay, purified enzyme panel", "assay_type": "biochemical", "conditions": "58B1, 10 μM", "source_text": "as §4, §5"}, "CRC cells": {"system": "CRC cells", "assay": "CRC cell proliferation", "assay_type": "cell-based", "source_text": "KDM3A is a Jumonji domain-containing demethylase that regulates the demethylation of histone H3's lysine 9 (H3K9Me^2)."}, "SW620": {"system": "SW620", "assay": "Colon cancer cell proliferation", "assay_type": "cell-based", "conditions": "SW620 (APC mutation); 5d, Vi-Cell viability assay", "source_text": "as §1, §3"}, "[2]": {"system": "histone methylation in CRC cells", "assay": "Histone methylation in CRC cells", "assay_type": "cell-based", "source_text": "CBA-1 increased repressive histone methylation on Wnt target genes. The present inventors reported that mutations in APC or β-catenin N-terminal phosphorylation sites prevented β-catenin degradation in CRC cells. […] Because CBA-1 inhibited Wnt signaling in CRC cells, it was reasonable to assume that it inhibited Wnt signaling downstream of β-catenin, most likely by blocking β-catenin activity in the nucleus. Consequently, the present inventors hypothesized that CBA-1 inhibited Wnt signaling epigenetically by altering chromatin remodeling, and they probed the effects of CBA-1 on histone methylation in CRC cells."}},
  "data": [
    {"smiles": "CCCC(=O)NC(c1ccc(N(CC)CC)cc1)c1cc(Cl)c2cccnc2c1O", "note": "(stereo not drawn) [58B1]", "values": [
      {"measurement": "proliferation of CRC cell lines", "setting": "LS174T; LS174T (β-catenin mutation), 5d, Vi-Cell viability assay", "result": "inhibited proliferation"},
      {"measurement": "proliferation of colon cancer cell line", "setting": "LS174T; LS174T, at low nanomolar concentrations", "result": "strongly inhibited"},
      {"measurement": "proliferation of CRC cell lines", "setting": "DLD1; DLD1 (APC mutation), 5d, Vi-Cell viability assay", "result": "inhibited proliferation"},
      {"measurement": "proliferation of colon cancer cell line", "setting": "DLD1; DLD1, at low nanomolar concentrations", "result": "strongly inhibited"},
      {"measurement": "H3K4me^2", "setting": "[1]", "result": "not"},
      {"measurement": "H3K9Me^3", "setting": "[1]", "result": "induced"},
      {"measurement": "H3K9 dimethylation (H3K9Me^2)", "setting": "[1]", "result": "strongly induced"},
      {"measurement": "H3K27Me^3", "setting": "[1]", "result": "induced"},
      {"measurement": "inhibition at 10 µM", "setting": "JMJD2C (KDM4C)", "result": 72, "unit": "%"},
      {"measurement": "inhibition at 10 µM", "setting": "Jarid1B (KDM5B)", "result": 95, "unit": "%"},
      {"measurement": "inhibition at 10 µM", "setting": "LSD1 (KDM1A)", "result": 32, "unit": "%"},
      {"measurement": "inhibition at 10 µM", "setting": "JMJD3 (KDM6B)", "result": 94, "unit": "%"},
      {"measurement": "CRC cell proliferation", "setting": "CRC cells; at 100 nM concentration", "result": "inhibited"},
      {"measurement": "sensitivity of CRC cells compared with normal colon cells", "setting": "CRC cells; expected", "result": "more sensitive"},
      {"measurement": "proliferation of CRC cell lines", "setting": "SW620", "result": "inhibited proliferation"},
      {"measurement": "H3K4Me^2", "setting": "[2]", "result": "no effect"},
      {"measurement": "levels of H3K9Me^2", "setting": "[2]", "result": "significantly increased"},
      {"measurement": "levels of H3K9Me^3", "setting": "[2]", "result": "significantly increased"}
    ]}
  ]
}
